Measured values reported in US20180057465A1, “Inhibitors of Necroptosis” (Catalyst Therapeutics Pty Ltd, priority 2015, published 2018).

How the values were obtained:
[1] = system: U937 human histiocytic leukemia cell line; experiment: Assay 1: inhibition of TSQ induced necroptosis, 96 well plate format; type: cell-based
Protocol: For in vitro analysis, the necroptosis inhibition may be determined by assays used to measure TSQ-induced necroptosis, as described in the biological tests defined herein.
(§1) Assay 1: Screening Compounds for Inhibition of TSQ Induced Necroptosis, 96 Well Plate Format.
(§2) Cell Line ID: […] human histiocytic leukemia cell line.
(§3) Cell Concentration (cells/well): 35,000 per well in 120 μL of media, counted and plated immediately prior to addition of inhibitor and death stimuli. Final well volume of 150 μL after addition of compounds and death stimuli
(§4) Cell growth medium: HTRPMI (WEHI Media kitchen, contains L-Glutamine and penicillin, streptomycin)—supplemented with 7.4% v/v FCS (Gibco, Precision Plus. Lot #1221437)
(§5) Incubation time (hours): 48 hours following addition of compounds and death stimuli
(§6) Compound Concentrations—Log Titrations:
(§7) DMSO final concentration (% v/v): 1.2% in 10 μM well to 0.2% in the control well.
Compounds that are in the Death Stimulation Cocktail and Their Final Concentrations:
hTNF-Fc (100 ng/ml)—produced by standard procedures as shown in Bossen et al., J Biol Chem, 2006, 281(20), 13964-13971.
Compound A (500 nM)—Smac mimetic, Tetralogic
Q-VD-OPh (10 μM)—MP Biomedicals
(§8) Cells treated with PI staining (1 μg/ml) and analysed by flow cytometry

[2] = system: U937 human histiocytic leukemia cell line; experiment: Off-target effect (cell based assay), reported with assay 1
Protocol: as §1, §2, §3, §4, §5, §6, §7, §8

[3] = U-937, Table 1, assay 1, hTNF-Fc 100 ng/ml, Compound A 500 nM, Q-VD-OPh 10 μM, 48 hours, PI staining, flow cytometry, read-out: Inhibition of TSQ-induced necroptosis (cell based assay) IC50
[4] = U-937, Table 1, assay 1, read-out: Off-target effect (cell based assay) IC50
[5] = U-937, comparison tables of the description, values as in Table 1 (assay 1), read-out: IC50 (nM) Necroptosis inhibition
[6] = U-937, comparison tables of the description, values as in Table 1 (assay 1), read-out: IC50 (nM) Off-Target Effect

| Structure (SMILES) | IC50 [1, 3] [nM] | IC50 [2, 4] [nM] | IC50 [1, 5] [nM] | IC50 [2, 6] [nM] |
| --- | --- | --- | --- | --- |
| CN(c1ccc(NC(=O)Nc2ccc(OC(F)(F)F)cc2)cc1)c1ccnc(Nc2cccc(N)c2)n1 [Compound 22, 1-(4-((2-(3-aminophenylamino)pyrimidin-4-yl)(methyl)amino)phenyl)-3-(4-(trifluoromethoxy)phenyl)urea] | 427 | > 10000 |  |  |
| CN(c1ccc(NC(=O)Nc2ccc(OC(F)(F)F)cc2)cc1)c1ccnc(Nc2cccc(N3CCCC3=O)c2)n1 [Compound 8, 1-(4-(Methyl(2-((3-(2-oxopyrrolidin-1-yl)phenyl)amino)pyrimidin-4-yl)amino)phenyl)-3-(4-(trifluoromethoxy)phenyl)urea] | 75.4 | > 10000 | 75.4 | > 10000 |
| CNC(=O)c1cc(Nc2nccc(N(C)c3ccc(NC(=O)Nc4ccc(OC(F)(F)F)cc4)cc3)n2)ccc1N1CCOCC1 [Compound 17, N-methyl-5-((4-(methyl(4-(3-(4-(trifluoromethoxy)phenyl)ureido)phenyl)amino)pyrimidin-2-yl)amino)-2-morpholinobenzamide] | 38.3 | 5670 |  |  |
| Cc1ccc(Nc2nccc(N(C)c3ccc(NC(=O)Nc4ccc(OC(F)(F)F)cc4)cc3)n2)cc1CN1CCN(C)CC1 [Compound 23, 1-(4-(methyl(2-((4-methyl-3-((4-methylpiperazin-1-yl)methyl)phenyl)amino)pyrimidin-4-yl)amino)phenyl)-3-(4-(trifluoromethoxy)phenyl)urea] | 202 | 6380 |  |  |
| Cc1ccc(Nc2nccc(N(C)c3ccc(NC(=O)Nc4ccc(OC(F)(F)F)cc4)cc3)n2)cc1N1CCCC1=O [Compound 7] | 51.8 | > 10000 |  |  |
| CNC(=O)c1cc(Nc2ncc(F)c(N(C)c3ccc(NC(=O)Nc4cc(C(F)(F)F)ccc4F)cc3)n2)ccc1C [Compound 15, 5-(5-fluoro-4-((4-(3-(2-fluoro-5-(trifluoromethyl)phenyl)ureido)phenyl)(methyl)amino)pyrimidin-2-ylamino)-N,2-dimethylbenzamide] | < 1 | 103 |  |  |
| CNC(=O)c1cc(Nc2nccc(N(C)c3ccc(NC(=O)Nc4cc(F)cc(C(F)(F)F)c4)cc3)n2)ccc1N1CCN(C)CC1 [Compound 31] | 13 |  |  |  |
| CNC(=O)c1cc(Nc2nccc(N(C)c3ccc(NC(=O)Nc4cccc(C#N)c4)cc3)n2)ccc1C [Compound 33, 5-((4-((4-(3-(3-cyanophenyl)ureido)phenyl)(methyl)amino)pyrimidin-2-yl)amino)-N,2-dimethylbenzamide] | 164 | 4130 |  |  |
| Cc1ccc(Nc2nccc(N(C)c3ccc(NC(=O)Nc4ccc(OC(F)(F)F)cc4)cc3)n2)cc1CN(C)C [Compound 1, 1-(4-((2-((3-((dimethylamino)methyl)-4-methylphenyl)amino)pyrimidin-4-yl)(methyl)amino)phenyl)-3-(4-(trifluoromethoxy)phenyl)urea] | 53 | 4680 |  |  |
| CC(=O)Nc1cc(Nc2nccc(N(C)c3ccc(NC(=O)Nc4ccc(OC(F)(F)F)cc4)cc3)n2)ccc1C [Compound 28, N-(2-methyl-5-((4-(methyl(4-(3-(4-(trifluoromethoxy)phenyl)ureido)phenyl)amino)pyrimidin-2-yl)amino)phenyl)acetamide] | 93 | 980 |  |  |
| CN(c1ccc(NC(=O)Nc2ccc(OC(F)(F)F)cc2)cc1)c1ccnc(Nc2cccc(S(N)(=O)=O)c2)n1 [Compound 1 from AU 2014903569, reference compound] |  |  | 67.9 | 3570 |
| CN(c1ccc(NC(=O)Nc2ccc(OC(F)(F)F)cc2)cc1)c1nc(Nc2cccc(S(N)(=O)=O)c2)ncc1C(F)(F)F [Compound 6a, 3-((4-(Methyl(4-(3-(4-(trifluoromethoxy)phenyl)ureido)phenyl)amino)-5-(trifluoromethyl)pyrimidin-2-yl)amino)benzenesulfonamide] |  |  | > 10000 | 5070 |
| CNC(=O)c1cc(Nc2nccc(N(C)c3ccc(NC(=O)Nc4cc(Cl)cc(C(F)(F)F)c4)cc3)n2)ccc1C [Compound 29, 5-((4-((4-(3-(3-chloro-5-(trifluoromethyl)phenyl)ureido)phenyl)(methyl)amino)pyrimidin-2-yl)amino)-N,2-dimethylbenzamide] | 20 | 2050 |  |  |
| CN(c1ccc(NC(=O)Nc2ccc(OC(F)(F)F)cc2)cc1)c1nc(Nc2cccc(S(N)(=O)=O)c2)ncc1Cl [Compound 2, 3-((5-Chloro-4-(methyl(4-(3-(4-(trifluoromethoxy)phenyl)ureido)phenyl)amino)pyrimidin-2-yl)amino) benzenesulfonamide] | 29.5 | 2110 | 29.5 | 2110 |
| CNC(=O)c1cc(Nc2nccc(N(C)c3ccc(NC(=O)Nc4cc(F)cc(C(F)(F)F)c4)cc3)n2)ccc1OC [Compound 30, 5-((4-((4-(3-(3-fluoro-5-(trifluoromethyl)phenyl)ureido)phenyl)(methyl)amino)pyrimidin-2-yl)amino)-2-methoxy-N-methylbenzamide] | 58 | 6680 |  |  |
| Cc1ccc(Nc2ncc(F)c(N(C)c3ccc(NC(=O)Nc4cc(F)cc(C(F)(F)F)c4)cc3)n2)cc1N1CCCC1=O [Compound 24, 1-(4-((5-fluoro-2-((4-methyl-3-(2-oxopyrrolidin-1-yl)phenyl)amino)pyrimidin-4-yl)(methyl)amino)phenyl)-3-(3-fluoro-5-(trifluoromethyl)phenyl)urea] | 8.9 | 1240 |  |  |
| CN(c1ccc(NC(=O)Nc2ccc(OC(F)(F)F)cc2)cc1)c1ccnc(Nc2cccc(C#N)c2)n1 [Compound 21, 1-(4-((2-(3-cyanophenylamino)pyrimidin-4-yl)(methyl)amino)phenyl)-3-(4-(trifluoromethoxy)phenyl)urea] | 476 | > 10000 |  |  |
| CNC(=O)c1cc(Nc2nccc(N(C)c3ccc(NC(=O)Nc4cc(F)cc(C(F)(F)F)c4)cc3)n2)ccc1C [Compound 16, 5-(4-((4-(3-(3-fluoro-5-(trifluoromethyl)phenyl)ureido)phenyl)(methyl)amino)-pyrimidin-2-ylamino)-N,2-dimethylbenzamide] | 10.8 | 1230 |  |  |
| CN(c1ccc(NC(=O)Nc2ccc(OC(F)(F)F)cc2)cc1)c1ccnc(Nc2cccc(O)c2)n1 [Compound 19, 1-(4-((2-(3-hydroxyphenylamino)pyrimidin-4-yl)(methyl)amino)phenyl)-3-(4-(trifluoromethoxy)phenyl)urea] | 1160 | > 10000 |  |  |
| Cc1ccc(Nc2nccc(N(C)c3ccc(NC(=O)Nc4ccc(OC(F)(F)F)cc4)cc3)n2)cc1CN1CCOCC1 [Compound 18, 1-(4-(methyl(2-((4-methyl-3-(morpholinomethyl)phenyl)amino)pyrimidin-4-yl)amino)phenyl)-3-(4-(trifluoromethoxy)phenyl)urea] | 514 | > 10000 |  |  |
| CN(c1ccc(NC(=O)Nc2ccc(OC(F)(F)F)cc2)cc1)c1ccnc(Nc2cccc(-c3nnn(C)n3)c2)n1 [Compound 11, 1-(4-(Methyl(2-((3-(2-methyl-2H-tetrazol-5-yl)phenyl)amino)pyrimidin-4-yl)amino)phenyl)-3-(4-(trifluoromethoxy)phenyl)urea] | 7.5 | 1350 |  |  |
| COc1cccc(Nc2nccc(N(C)c3ccc(NC(=O)Nc4ccc(OC(F)(F)F)cc4)cc3)n2)c1 [Compound 20, 1-(4-((2-(3-methoxyphenylamino)pyrimidin-4-yl)(methyl)amino)phenyl)-3-(4-(trifluoromethoxy)phenyl)urea] | 504 | > 10000 |  |  |
| CNC(=O)c1cc(Nc2ncc(F)c(N(C)c3ccc(NC(=O)Nc4ccc(OC(F)(F)F)cc4)cc3)n2)ccc1C [Compound 12, 5-((5-Fluoro-4-(methyl(4-(3-(4-(trifluoromethoxy)phenyl)ureido)phenyl)amino)pyrimidin-2-yl)amino)-N,2-dimethylbenzamide] | 10.1 | > 10000 | 10.1 | > 10000 |
| CNC(=O)c1cc(Nc2nccc(N(C)c3ccc(NC(=O)Nc4cc(F)cc(C(F)(F)F)c4)cc3)n2)ccc1N1CCOCC1 [Compound 27, 5-((4-((4-(3-(3-fluoro-5-(trifluoromethyl)phenyl)ureido)phenyl)(methyl)amino)pyrimidin-2-yl)amino)-N-methyl-2-morpholinobenzamide] | 325 | 2700 |  |  |
| CNC(=O)c1cc(Nc2nccc(N(C)c3ccc(NC(=O)Nc4cc(F)cc(C(F)(F)F)c4)cc3)n2)ccc1OCCN1CCCC1 [Compound 32, 5-((4-((4-(3-(3-fluoro-5-(trifluoromethyl)phenyl)ureido)phenyl)(methyl)amino)pyrimidin-2-yl)amino)-N-methyl-2-(2-(pyrrolidin-1-yl)ethoxy)benzamide] | 40 |  |  |  |
| CN(c1ccc(NC(=O)Nc2cc(C(F)(F)F)ccc2F)cc1)c1ccnc(Nc2cccc(S(N)(=O)=O)c2)n1 [Compound 3 from AU 2014903569, reference compound] |  |  |  | 791 |
